Data from paper PMC10139140, “Synthesis of Novel 2-(Cyclopentylamino)thiazol-4(5H)-one Derivatives with Potential Anticancer, Antioxidant, and 11β-HSD Inhibitory Activities” (International Journal of Molecular Sciences, 2023).

Experiments:
11β-HSD1 = biological target: T1, 11β-HSD1 (Homo sapiens, UniProt P28845); test: Inhibition of 11β-HSD1 (cortisone to cortisol, human liver microsomes, cortisol ELISA); assay type: biochemical
T1 construct: Human liver microsomes were used as a source of 11β-HSD1 enzyme; tissue XenoTech Lot No. 1410013; host or cells: pooled human liver microsomes, mixed gender
Protocol: The resulting solution with a final volume of 100 µL was incubated for 2.5 h at 37 °C. To stop the reaction, 10 µL of a 100 µM solution of 18β-glycyrrhetinic acid in PBS was added. The level of cortisol obtained in the reaction was measured by commercially available ELISA kit.
As a control, analogous tests without the addition of inhibitors were used. Half the inhibitory concentration (causing 50% reduction of cortisol or cortisone) was read from the chart.

11β-HSD2 = biological target: T2, 11β-HSD2 (Homo sapiens, UniProt P80365); test: Inhibition of 11β-HSD2 (cortisol to cortisone, human microsomes, cortisol ELISA); assay type: biochemical; settings: 2.5 h, 37 °C
T2 construct: Human liver microsomes were used as a source of 11β-HSD2 enzyme; tissue XenoTech Lot No. 1710160; host or cells: human kidney microsomes, mixed gender (method text says human liver microsomes)
T2 sequence (P80365 1-405): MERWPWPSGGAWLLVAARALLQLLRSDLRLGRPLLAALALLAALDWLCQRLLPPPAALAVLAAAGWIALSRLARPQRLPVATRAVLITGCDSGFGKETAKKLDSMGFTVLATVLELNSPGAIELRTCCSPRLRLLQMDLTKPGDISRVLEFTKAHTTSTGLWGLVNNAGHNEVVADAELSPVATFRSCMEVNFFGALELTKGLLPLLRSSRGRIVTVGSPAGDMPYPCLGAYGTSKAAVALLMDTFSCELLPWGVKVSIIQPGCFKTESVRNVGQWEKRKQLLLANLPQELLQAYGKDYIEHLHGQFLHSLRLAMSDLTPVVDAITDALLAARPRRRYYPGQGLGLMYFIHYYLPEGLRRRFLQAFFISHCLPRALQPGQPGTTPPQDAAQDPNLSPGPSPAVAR
Protocol: The resulting solution with a final volume of 100 µL was incubated for 2.5 h at 37 °C. […] The level of unreacted cortisol was measured by a commercially available ELISA kit.

BJ cells = test: MTS metabolic activity assay, BJ cells; assay type: cell-based; settings: Homo sapiens, 72 h, read-out: Cell metabolic activity (MTS), % of untreated control
Protocol: (§1) The BJ (CRL-2522), Caco-2 (HTB-37), PANC-1 (CRL-1469), U-118 MG (HTB-15), SK-MEL-30 (ACC 151), and MDA-MB-231 (HTB-26) cell lines were purchased from ATCC (Manassas, VA, USA) or DSMZ (Braunschweig, GERMANY). Cells were cultured in accordance with manufacturers' recommendations in a DMEM, MEM, or RPMI-1640 (Sigma, Saint Louis, MO, USA; Gibco, Waltham, MA, USA), supplemented with 10% FBS, except for Caco-2 (20%) (Thermo Fisher Scientific, Waltham, MA, USA) and 1% antibiotic mix solution (penicillin, streptomycin; Thermo Fisher Scientific, Waltham, MA, USA) in a humidified atmosphere with 5% CO2 at 37 °C. All cell lines were cultured in T75 cell culture flasks or cell culture dishes to reach 80–90% confluency and seeded at a standard density of 5 × 10^3 cells/0.32 cm^2, except for BJ cells at 2 × 10^3 cells/0.32 cm^2.
(§2) The MTS ((MTS: 3-(4,5-dimethylthiazol-2-yl)-5-(3-carboxymethoxyphenyl)-2-(4-sulfophenyl)-2H-tetrazolium)) assay was performed following previously reported method. Briefly, cells were seeded at a standard density into 96-well flat-bottom plates and incubated for 24 h, followed by the treatment. The various concentrations of compounds were prepared and treated for the next 72 h. MTS solution was added for 3h and incubated at standard conditions, protected from light. Finally, the absorbance was read at […] and 620 nm wavelengths using a Synergy H1 microplate reader (BioTek, Santa Clara, CA, USA). The results are presented as %, while untreated control cells were considered 100%.

[1] = test system: human colon carcinoma (Caco-2); test: MTS metabolic activity assay, Caco-2 cells; assay type: cell-based; settings: Homo sapiens, 72 h, read-out: Cell metabolic activity (MTS), % of untreated control
Protocol: as §1, §2

[2] = test system: human pancreatic carcinoma (PANC-1); test: MTS metabolic activity assay, PANC-1 cells; assay type: cell-based; settings: Homo sapiens, 72 h, read-out: Cell metabolic activity (MTS), % of untreated control
Protocol: as §1, §2

glioma (U-118 MG) = test: MTS metabolic activity assay, U-118 MG cells; assay type: cell-based; settings: Homo sapiens, U-118-MG, U118-MG, 72 h, read-out: Cell metabolic activity (MTS), % of untreated control
Protocol: as §1, §2

[3] = test system: skin melanoma (SK-MEL-30); test: MTS metabolic activity assay, SK-MEL-30 cells; assay type: cell-based; settings: Homo sapiens, 72 h, read-out: Cell metabolic activity (MTS), % of untreated control
Protocol: as §1, §2

[4] = test system: human breast carcinoma (MDA-MB-231); test: MTS metabolic activity assay, MDA-MB-231 cells; assay type: cell-based; settings: Homo sapiens, 72 h, read-out: Cell metabolic activity (MTS), % of untreated control
Protocol: as §1, §2

T1 sequence (P28845 whole entry): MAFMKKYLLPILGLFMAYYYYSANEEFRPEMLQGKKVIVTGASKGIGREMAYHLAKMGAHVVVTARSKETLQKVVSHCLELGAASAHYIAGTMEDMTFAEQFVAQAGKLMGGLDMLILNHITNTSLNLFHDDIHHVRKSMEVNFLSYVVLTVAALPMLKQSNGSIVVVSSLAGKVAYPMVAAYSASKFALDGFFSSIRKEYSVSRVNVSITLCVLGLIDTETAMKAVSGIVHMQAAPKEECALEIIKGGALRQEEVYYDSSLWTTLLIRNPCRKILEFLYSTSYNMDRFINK

`CC1SC(NC2CCCC2)=NC1=O` (stereo not drawn) [Compound 3a, 2-(cyclopentylamino)-5-methylthiazol-4(5H)-one] was tested, and the IC50 (11β-HSD1) was over 10 µM, the inhibition at 10 µM (11β-HSD1; 10 µM, 2.5 h, 37 °C) was 10.9 ± 4.08% and the inhibition at 10 µM (11β-HSD2) was 40.3 ± 0.65%. The viability at 10 µM (BJ cells; 10 µM) was 95.9%, the viability at 20 µM (BJ cells; 20 µM) was 98.4% and the viability at 50 µM (BJ cells; 50 µM) was 102%. The viability at 100 µM (BJ cells; 100 µM) was 112%, the viability at 200 µM (BJ cells; 200 µM) was 109% and the viability at 300 µM (BJ cells; 300 µM) was 109%. The viability at 500 µM (BJ cells; 500 µM) was 110%, the viability at 10 µM ([1]; Caco-2, 10 µM) was 86.2% and the viability at 20 µM ([1]; Caco-2, 20 µM) was 92.8%. The viability at 50 µM ([1]; Caco-2, 50 µM) was 82.6%, the viability at 100 µM ([1]; Caco-2, 100 µM) was 81.6% and the viability at 200 µM ([1]; Caco-2, 200 µM) was 76.9%. For the same molecule, the viability at 300 µM ([1]; Caco-2, 300 µM) was 75.5%, the viability at 500 µM ([1]; Caco-2, 500 µM) was 66.8% and the viability at 10 µM ([2]; PANC-1, 10 µM) was 99.7%. It also gave a viability at 20 µM ([2]; PANC-1, 20 µM) of 104%, a viability at 50 µM ([2]; PANC-1, 50 µM) of 106% and a viability at 100 µM ([2]; PANC-1, 100 µM) of 107%. It also gave a viability at 200 µM ([2]; PANC-1, 200 µM) of 110%, a viability at 300 µM ([2]; PANC-1, 300 µM) of 106% and a viability at 500 µM ([2]; PANC-1, 500 µM) of 104%. For the same molecule, the viability at 10 µM (glioma (U-118 MG); 10 µM) was 111%, the viability at 20 µM (glioma (U-118 MG); 20 µM) was 109% and the viability at 50 µM (glioma (U-118 MG); 50 µM) was 113%. It also gave a viability at 100 µM (glioma (U-118 MG); 100 µM) of 110%, a viability at 200 µM (glioma (U-118 MG); 200 µM) of 110% and a viability at 300 µM (glioma (U-118 MG); 300 µM) of 110%. For the same molecule, the viability at 500 µM (glioma (U-118 MG); 500 µM) was 105%, the viability at 10 µM ([3]; SK-MEL-30, 10 µM) was 104% and the viability at 20 µM ([3]; SK-MEL-30, 20 µM) was 102%. For the same molecule, the viability at 50 µM ([3]; SK-MEL-30, 50 µM) was 102%, the viability at 100 µM ([3]; SK-MEL-30, 100 µM) was 106% and the viability at 200 µM ([3]; SK-MEL-30, 200 µM) was 103%. For the same molecule, the viability at 300 µM ([3]; SK-MEL-30, 300 µM) was 101%, the viability at 500 µM ([3]; SK-MEL-30, 500 µM) was 97.6% and the viability at 10 µM ([4]; MDA-MB-231, 10 µM) was 105%. It also gave a viability at 20 µM ([4]; MDA-MB-231, 20 µM) of 107%, a viability at 50 µM ([4]; MDA-MB-231, 50 µM) of 103% and a viability at 100 µM ([4]; MDA-MB-231, 100 µM) of 105%. It also gave a viability at 200 µM ([4]; MDA-MB-231, 200 µM) of 104%, a viability at 300 µM ([4]; MDA-MB-231, 300 µM) of 93.6% and a viability at 500 µM ([4]; MDA-MB-231, 500 µM) of 89.8%.
